The data set in a line: recombinant barcode read abundance after kanamycin selection (control-corrected) (log10(CPM+1)); higher = more efficient recombination; sequences stand for … in AGTGCAGAGAAAATCGGCCAGTTTTCTCTGCCTGCAGTCCGCATGCCGT…ATTTATGCAGCGGACTGCCTTTCTCCCAAAGTGATAAACCGGACAGTATCATGGACCGGTTTTCCCGGTAATCCGTATTTGCAAGGTTGGTTTCACT; site = the 11-nt target. The procedure, abridged:
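Reported as log10(CPM+1), each value stands for recombination efficiency. That efficiency is the averaged, control-corrected counts per million of barcodes found at recombinant junctions. Cells from a pooled E. coli library pairing targets with IS621 bridge RNA target-binding loops were plated twice on chloramphenicol/ampicillin LB agar (control) and twice on chloramphenicol/ampicillin/kanamycin with 0.1 mM IPTG.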

For “GGACACCATTGGGTTCTAACCTGTTGCCTAG [GGACACCCTAG_LTGcore_AT_RTGcore_CT] (site GGACACCCTAG) (LTG core: AT, RTG core: CT)”, the “recombinant barcode read abundance (log10)” value stood at 0.15. To “GGACACCATTGGGTTCTAACCTGTTGCCTAT [GGACACCCTAG_LTGcore_AT_RTGcore_AT] (site GGACACCCTAG) (LTG core: AT, RTG core: AT)” belongs 0.145; to “GGACACCCTTGGGTTCTAACCTGTTGCCTAA [GGACACCCTAG_LTGcore_CT_RTGcore_TT] (site GGACACCCTAG) (LTG core: CT, RTG core: TT)”, 1.19; to “GGACACCCTTGGGTTCTAACCTGTTGCCTCC [GGACACCCTAG_LTGcore_CT_RTGcore_GG] (site GGACACCCTAG) (LTG core: CT, RTG core: GG)”, 0.904. As for “GGACACCCTTGGGTTCTAACCTGTTGCCTCT [GGACACCCTAG_LTGcore_CT_RTGcore_AG] (site GGACACCCTAG) (LTG core: CT, RTG core: AG)”, the figure is 0.545. As for “GGACACCCTTGGGTTCTAACCTGTTGCCTGG [GGACACCCTAG_LTGcore_CT_RTGcore_CC] (site GGACACCCTAG) (LTG core: CT, RTG core: CC)”, the figure is 0.503. On to “GGACACCCTTGGGTTCTAACCTGTTGCCTTA [GGACACCCTAG_LTGcore_CT_RTGcore_TA] (site GGACACCCTAG) (LTG core: CT, RTG core: TA)”, for which the “recombinant barcode read abundance (log10)” value amounted to 1.36. As to “GGACACCCTTGGGTTCTAACCTGTTGCCTTT [GGACACCCTAG_LTGcore_CT_RTGcore_AA] (site GGACACCCTAG) (LTG core: CT, RTG core: AA)”, the “recombinant barcode read abundance (log10)” value turned out to be 1.04. To “GGACACCGCTGGGTTCTAACCTGTTGCCTGC [GGACACCCTAG_LTGcore_GC_RTGcore_GC] (site GGACACCCTAG) (LTG core: GC, RTG core: GC)” belongs 0.0534; to “GGACACCGGTGGGTTCTAACCTGTTGCCTCC [GGACACCCTAG_LTGcore_GG_RTGcore_GG] (site GGACACCCTAG) (LTG core: GG, RTG core: GG)”, 0.0801; to “GGACACCGTTGGGTTCTAACCTGTTGCCTAC [GGACACCCTAG_LTGcore_GT_RTGcore_GT] (site GGACACCCTAG) (LTG core: GT, RTG core: GT)”, 0.944. As for “GGACACCTATGGGTTCTAACCTGTTGCCTAG [GGACACCCTAG_LTGcore_TA_RTGcore_CT] (site GGACACCCTAG) (LTG core: TA, RTG core: CT)”, the “recombinant barcode read abundance (log10)” value turned out to be 0.094.

“GGACACCTATGGGTTCTAACCTGTTGCCTTA [GGACACCCTAG_LTGcore_TA_RTGcore_TA] (site GGACACCCTAG) (LTG core: TA, RTG core: TA)”: the “recombinant barcode read abundance (log10)” value is 0.

Consider “GGCTCCCAATGGGTTCTAACCTGTTGCGGTT [GGCTCCCCTCC_LTGcore_AA_RTGcore_AA] (site GGCTCCCCTCC) (LTG core: AA, RTG core: AA)”, for which the “recombinant barcode read abundance (log10)” value came to 0.102.

Turning to “GGCTCCCCATGGGTTCTAACCTGTTGCGGAG [GGCTCCCCTCC_LTGcore_CA_RTGcore_CT] (site GGCTCCCCTCC) (LTG core: CA, RTG core: CT)”, the “recombinant barcode read abundance (log10)” value amounted to 0.0917. To “GGCTCCCCTTGGGTTCTAACCTGTTGCGGAT [GGCTCCCCTCC_LTGcore_CT_RTGcore_AT] (site GGCTCCCCTCC) (LTG core: CT, RTG core: AT)” belongs 0.0958; to “GGCTCCCCTTGGGTTCTAACCTGTTGCGGCC [GGCTCCCCTCC_LTGcore_CT_RTGcore_GG] (site GGCTCCCCTCC) (LTG core: CT, RTG core: GG)”, 0.131; to “GGCTCCCCTTGGGTTCTAACCTGTTGCGGTA [GGCTCCCCTCC_LTGcore_CT_RTGcore_TA] (site GGCTCCCCTCC) (LTG core: CT, RTG core: TA)”, 0.101.

Turning to “GGCTCCCCTTGGGTTCTAACCTGTTGCGGTC [GGCTCCCCTCC_LTGcore_CT_RTGcore_GA] (site GGCTCCCCTCC) (LTG core: CT, RTG core: GA)”, the “recombinant barcode read abundance (log10)” value was 0.0253. “GGCTCCCCTTGGGTTCTAACCTGTTGCGGTG [GGCTCCCCTCC_LTGcore_CT_RTGcore_CA] (site GGCTCCCCTCC) (LTG core: CT, RTG core: CA)”: the “recombinant barcode read abundance (log10)” value worked out at 0.251. As to “GGCTCCCGGTGGGTTCTAACCTGTTGCGGCC [GGCTCCCCTCC_LTGcore_GG_RTGcore_GG] (site GGCTCCCCTCC) (LTG core: GG, RTG core: GG)”, the “recombinant barcode read abundance (log10)” value is 0.203. Consider “GGCTCCCGTTGGGTTCTAACCTGTTGCGGAC [GGCTCCCCTCC_LTGcore_GT_RTGcore_GT] (site GGCTCCCCTCC) (LTG core: GT, RTG core: GT)”, for which the “recombinant barcode read abundance (log10)” value is 0.259. To “GGCTCCCTTTGGGTTCTAACCTGTTGCGGAA [GGCTCCCCTCC_LTGcore_TT_RTGcore_TT] (site GGCTCCCCTCC) (LTG core: TT, RTG core: TT)” belongs 0.0992. As for “GGCTCCCTTTGGGTTCTAACCTGTTGCGGAG [GGCTCCCCTCC_LTGcore_TT_RTGcore_CT] (site GGCTCCCCTCC) (LTG core: TT, RTG core: CT)”, the figure is 0.0927; as for “GGGAGCCAATGGGTTCTAACCTGTTGCTGAG [GGGAGCCCTCA_LTGcore_AA_RTGcore_CT] (site GGGAGCCCTCA) (LTG core: AA, RTG core: CT)”, 0.235. As for “GGGAGCCATTGGGTTCTAACCTGTTGCTGAT [GGGAGCCCTCA_LTGcore_AT_RTGcore_AT] (site GGGAGCCCTCA) (LTG core: AT, RTG core: AT)”, the figure is 0.574; as for “GGGAGCCCTTGGGTTCTAACCTGTTGCTGCA [GGGAGCCCTCA_LTGcore_CT_RTGcore_TG] (site GGGAGCCCTCA) (LTG core: CT, RTG core: TG)”, 0.122. For the sequence “GGGAGCCCTTGGGTTCTAACCTGTTGCTGCG [GGGAGCCCTCA_LTGcore_CT_RTGcore_CG] (site GGGAGCCCTCA) (LTG core: CT, RTG core: CG)”, the “recombinant barcode read abundance (log10)” value amounted to 0.147. Consider “GGGAGCCCTTGGGTTCTAACCTGTTGCTGTG [GGGAGCCCTCA_LTGcore_CT_RTGcore_CA] (site GGGAGCCCTCA) (LTG core: CT, RTG core: CA)”, for which the “recombinant barcode read abundance (log10)” value was determined as 0.589.

For the sequence “GGGAGCCTTTGGGTTCTAACCTGTTGCTGAG [GGGAGCCCTCA_LTGcore_TT_RTGcore_CT] (site GGGAGCCCTCA) (LTG core: TT, RTG core: CT)”, the “recombinant barcode read abundance (log10)” value came to 0.364. To “GGGCGGAAATGGGTTCTAACCTGTTGCGGAG [GGGCGGACTCC_LTGcore_AA_RTGcore_CT] (site GGGCGGACTCC) (LTG core: AA, RTG core: CT)” belongs 0.131; to “GGGCGGACATGGGTTCTAACCTGTTGCGGAG [GGGCGGACTCC_LTGcore_CA_RTGcore_CT] (site GGGCGGACTCC) (LTG core: CA, RTG core: CT)”, 2.27; to “GGGCGGACGTGGGTTCTAACCTGTTGCGGAG [GGGCGGACTCC_LTGcore_CG_RTGcore_CT] (site GGGCGGACTCC) (LTG core: CG, RTG core: CT)”, 1.66.

For the sequence “GGGCGGACTTGGGTTCTAACCTGTTGCGGGC [GGGCGGACTCC_LTGcore_CT_RTGcore_GC] (site GGGCGGACTCC) (LTG core: CT, RTG core: GC)”, the “recombinant barcode read abundance (log10)” value is 0.131. With “GGGCGGACTTGGGTTCTAACCTGTTGCGGGT [GGGCGGACTCC_LTGcore_CT_RTGcore_AC] (site GGGCGGACTCC) (LTG core: CT, RTG core: AC)”, the “recombinant barcode read abundance (log10)” value was determined as 0.273. As for “GGGCGGAGTTGGGTTCTAACCTGTTGCGGAG [GGGCGGACTCC_LTGcore_GT_RTGcore_CT] (site GGGCGGACTCC) (LTG core: GT, RTG core: CT)”, the figure is 0.389; as for “GGGCGGATCTGGGTTCTAACCTGTTGCGGGA [GGGCGGACTCC_LTGcore_TC_RTGcore_TC] (site GGGCGGACTCC) (LTG core: TC, RTG core: TC)”, 0.265.

Take “GGGCGTGAGTGGGTTCTAACCTGTTGCCTAG [GGGCGTGCTAG_LTGcore_AG_RTGcore_CT] (site GGGCGTGCTAG) (LTG core: AG, RTG core: CT)”: the “recombinant barcode read abundance (log10)” value came out at 0.154. Take “GGGCGTGATTGGGTTCTAACCTGTTGCCTAT [GGGCGTGCTAG_LTGcore_AT_RTGcore_AT] (site GGGCGTGCTAG) (LTG core: AT, RTG core: AT)”: the “recombinant barcode read abundance (log10)” value came out at 0.0806. To “GGGCGTGCTTGGGTTCTAACCTGTTGCCTCA [GGGCGTGCTAG_LTGcore_CT_RTGcore_TG] (site GGGCGTGCTAG) (LTG core: CT, RTG core: TG)” belongs 1.06; to “GGGCGTGCTTGGGTTCTAACCTGTTGCCTGG [GGGCGTGCTAG_LTGcore_CT_RTGcore_CC] (site GGGCGTGCTAG) (LTG core: CT, RTG core: CC)”, 0.301; to “GGGCGTGCTTGGGTTCTAACCTGTTGCCTTG [GGGCGTGCTAG_LTGcore_CT_RTGcore_CA] (site GGGCGTGCTAG) (LTG core: CT, RTG core: CA)”, 0.0774.

In the case of “GGGCGTGGATGGGTTCTAACCTGTTGCCTTC [GGGCGTGCTAG_LTGcore_GA_RTGcore_GA] (site GGGCGTGCTAG) (LTG core: GA, RTG core: GA)”, the “recombinant barcode read abundance (log10)” value stood at 0.0142.
